Literature values, collected in patent US20070232656A1, “Pharmaceutical Composition And Method For Treating Neurodegenerative Disorders” (Myriad Genetics, Incorporated, priority 2004, published 2007).
Like-named read-outs stand apart in the source and are kept apart here.

Tests used:
[1] = system: Aβ42; conditions: CHO cells
[2] = system: Aβ42; conditions: transgenic mouse model
[3] = 50 mg and 100 mg doses, human subjects
[4] = system: COX
[5] = for efficacy for treating AD: clinical trials in AD patients (rofecoxib at 25 mg daily)
[6] = in vivo Alzheimer's disease excitotoxic model system
[7] = patients having mild cognitive impairment

Structure (SMILES): C[C@@H](C(=O)O)c1ccc(-c2ccccc2)c(F)c1 [(R)-2-(2-fluoro-4-biphenylyl)propionic acid]
- lowering of Aβ42 [1]: lower Aβ42
- lowering of Aβ42 [2]: lower Aβ42
- analgesic effect [3]: produced an analgesic effect
- inhibition of COX activity [4]: negligibly inhibits COX activity

Structure (SMILES): COc1ccc2cc([C@H](C)C(=O)O)ccc2c1 [Naproxen]
- efficacy for treating AD [5]: failed to show efficacy

Structure (SMILES): CC12CC3CC(C)(C1)CC(N)(C3)C2 [memantine]
- efficacy in treating mild-to-moderate AD ([5]; mild-to-moderate AD): showed efficacy

Structure (SMILES): CS(=O)(=O)c1ccc(C2=C(c3ccccc3)C(=O)OC2)cc1 [rofecoxib]
- neuroprotection [6]: provides neuroprotection
- prevention of the development of Alzheimer's disease [7]: failed to prevent the development of Alzheimer's disease
- patients who developed AD ([7]; 4.5% for placebo): 6.4%
- efficacy for treating AD [5]: failed to show efficacy
